Reference: patent US4550102A, “Cephem compounds” (Fujisawa Pharmaceutical Co. Ltd., priority 1981, dated 1985)

Assays:
Experiment in all cases: In vitro antimicrobial activity, two-fold agar-plate dilution method
Assay type in all cases: cell-based
[1] = test system: K. pneumoniae 20; conditions: Klebsiella pneumoniae, heart infusion agar, 37° C., 20 hours, approximately 10^8 viable cells per ml, read-out: MIC (minimal inhibitory concentration)
Protocol: (§1) Test: In vitro Antimicrobial Activity
(§2) In vitro Antimicrobial activity was determined by the two-fold agar-plate dilution method as described below.
(§3) One loopful of an overnight culture of each test strain in Tripticase-soy broth (approximately 10^8 viable cells per ml) was streaked on heart infusion agar (HI-agar) containing graded concentrations of an antimicrobial agent, and the minimal inhibitory concentration (MIC) was expressed in term of μg/ml after incubation at 37° C. for 20 hours.

[2] = test system: E. coli NIHJ JC - 2; conditions: Escherichia coli, heart infusion agar, 37° C., 20 hours, approximately 10^8 viable cells per ml, read-out: MIC (minimal inhibitory concentration)
Protocol: as §1, §2, §3

[3] = test system: E. coli 31; conditions: Escherichia coli, heart infusion agar, 37° C., 20 hours, approximately 10^8 viable cells per ml, read-out: MIC (minimal inhibitory concentration)
Protocol: as §1, §2, §3

Measured: MIC

CO/N=C(\C(=O)NC1C(=O)N2C(C(=O)[O-])=C(C[n+]3cccc(N)c3)CSC12)c1csc(N)n1 (stereo not drawn) [Compound A, 7-[2-Methoxyimino-2-(2-aminothiazol-4-yl)acetamido]-3-(3-amino-1-pyridiniomethyl)-3-cephem-4-carboxylate (syn isomer)]
< 0.025 µg/mL: all assays above
